{
  "source": "ChEMBL document CHEMBL3639203",
  "about": "“Macrocyclic indoles as hepatitis C virus inhibitors” (2013)",
  "molecular_target": "Genome polyprotein (Hepatitis C virus genotype 1b (strain HC-J4) (HCV), UniProt O92972)",
  "sequence (O92972 2420-3010 limits assumed)": "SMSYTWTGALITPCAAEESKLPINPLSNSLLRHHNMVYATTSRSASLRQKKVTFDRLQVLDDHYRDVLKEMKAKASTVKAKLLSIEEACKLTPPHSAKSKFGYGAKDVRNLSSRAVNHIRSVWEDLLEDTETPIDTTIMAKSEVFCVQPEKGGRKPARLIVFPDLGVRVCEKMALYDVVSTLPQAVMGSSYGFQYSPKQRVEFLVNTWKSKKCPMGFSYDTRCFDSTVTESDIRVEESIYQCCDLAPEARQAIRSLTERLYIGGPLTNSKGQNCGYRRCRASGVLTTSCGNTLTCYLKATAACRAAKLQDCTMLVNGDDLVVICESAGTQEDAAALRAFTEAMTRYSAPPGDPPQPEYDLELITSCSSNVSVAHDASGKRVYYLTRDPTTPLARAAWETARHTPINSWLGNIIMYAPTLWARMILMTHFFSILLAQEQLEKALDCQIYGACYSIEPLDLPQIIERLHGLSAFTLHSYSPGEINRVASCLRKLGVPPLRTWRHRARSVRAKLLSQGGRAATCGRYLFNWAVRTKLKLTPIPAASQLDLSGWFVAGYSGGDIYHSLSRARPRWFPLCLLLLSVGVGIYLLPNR",
  "assay": "Inhibition Assay: Inhibition assay using HCV NS5B.",
  "data": [
    {"smiles": "CN1C/C=C\\CCNC(=O)Cn2c(-c3ccc(Cl)cc3)c(C3CCCCC3)c3ccc(cc32)C(=O)NS1(=O)=O", "values": [
      {"measurement": "IC50", "value": 170, "unit": "nM"}
    ]}
  ]
}
